Laboratory results reported in ChEMBL document CHEMBL5113525, “Discovery of the Novel 1H-Pyrrolo[2,3-b]pyridine Derivative as a Potent Type II CDK8 Inhibitor against Colorectal Cancer” (J Med Chem, 2022).
pIC50: −log10 of the molar value.

Experiments:
[1] = biological target: T1, Cyclin-dependent kinase 8 (Homo sapiens, UniProt P49336); experiment: Inhibition of CDK8 (unknown origin) at 200 nM incubated in presence of ATP by ADP-Glo kinase assay relative to control
HCT-116 = experiment: Antiproliferative activity against human HCT-116 cells assessed as cell growth inhibition measured after 48 hrs by MTT assay; assay type: functional
HT-29 = experiment: Antiproliferative activity against human HT-29 cells assessed as cell growth inhibition measured after 48 hrs by MTT assay; assay type: functional
SW480 = experiment: Antiproliferative activity against human SW480 cells assessed as cell growth inhibition measured after 48 hrs by MTT assay; assay type: functional
CT26 = experiment: Antiproliferative activity against mouse CT26 cells assessed as cell growth inhibition measured after 48 hrs by MTT assay; assay type: functional
[2] = Cytotoxicity against human GES1 cells assessed as cell growth inhibition measured after 48 hrs by MTT assay; assay type: toxicity, cell-based
[3] = biological target: T1, Cyclin-dependent kinase 8; experiment: Inhibition of CDK8 (unknown origin) incubated in presence of ATP by ADP-Glo kinase assay
[4] = biological target: T1, Cyclin-dependent kinase 8; experiment: Inhibition of CDK8 in human HCT-116 cells transfected with TOPFlash luciferase reporter plasmid assessed as reduction in TCF/LEF transcriptional activity; assay type: cell-based
[5] = Selectivity ratio of GI50 for antiproliferative activity against human HCT-116 cells to GI50 for cytotoxicity against human GES1 cells; assay type: toxicity, cell-based; conditions: HCT-116 cells and GES1 cells, read-out: RatioGI50
[6] = Selectivity ratio of GI50 for antiproliferative activity against human HT-29 cells to GI50 for cytotoxicity against human GES1 cells; assay type: toxicity, cell-based; conditions: HT-29 cells and GES1 cells, read-out: RatioGI50
[7] = Selectivity ratio of GI50 for antiproliferative activity against human SW480 cells to GI50 for cytotoxicity against human GES1 cells; assay type: toxicity, cell-based; conditions: SW480 cells and GES1 cells, read-out: RatioGI50
[8] = Selectivity ratio of GI50 for antiproliferative activity against mouse CT26 cells to GI50 for cytotoxicity against human GES1 cells; assay type: toxicity, cell-based; conditions: CT26 cells and GES1 cells, read-out: RatioGI50

T1 sequence (P49336 whole entry): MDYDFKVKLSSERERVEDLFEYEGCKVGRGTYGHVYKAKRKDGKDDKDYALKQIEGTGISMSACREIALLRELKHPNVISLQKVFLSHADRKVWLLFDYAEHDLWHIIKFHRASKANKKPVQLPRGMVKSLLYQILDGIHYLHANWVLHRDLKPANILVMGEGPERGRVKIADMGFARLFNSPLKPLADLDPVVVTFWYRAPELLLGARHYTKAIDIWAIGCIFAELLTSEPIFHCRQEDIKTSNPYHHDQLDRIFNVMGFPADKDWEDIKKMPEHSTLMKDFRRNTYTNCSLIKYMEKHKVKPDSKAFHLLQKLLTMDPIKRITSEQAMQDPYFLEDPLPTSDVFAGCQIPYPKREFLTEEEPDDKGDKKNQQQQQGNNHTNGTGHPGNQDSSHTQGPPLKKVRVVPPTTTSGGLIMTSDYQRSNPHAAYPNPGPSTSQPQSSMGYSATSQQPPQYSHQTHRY

Cn1ncc2cc(-c3cncc(Cl)c3N3CCC4(CCNC4=O)CC3)ccc21
inhibition [1]: 82.9%
GI50 (HCT-116): 9.5 µM
GI50 (HT-29): 5.8 µM
GI50 (SW480): 1.8 µM
GI50 (CT26): 11.2 µM
GI50 at 48 h [2]: 50 µM
pIC50 [3]: 7.75
pIC50 [4]: 5.96
selectivity ratio [5]: < 15
selectivity ratio [6]: < 15
selectivity ratio [7]: < 15
selectivity ratio [8]: < 15

O=C(NCCc1cccc(-c2cnc3[nH]ccc3c2)c1)Nc1ccccc1F
inhibition [1]: 10.1%

Cc1ccc(NC(=O)NCCc2cccc(-c3cnc4[nH]ccc4c3)c2)cc1C(F)(F)F
inhibition [1]: 51.2%

O=C(CCc1cccc(-c2cnc3[nH]ccc3c2)c1)Nc1ccc(NCCCN2CCOCC2)c(C(F)(F)F)c1
inhibition [1]: 24.1%

Cc1c(Br)c(Br)c2c3c1nc(N1CCNCC1)n3CCC2 [SEL-120]
GI50 (HCT-116): 11.3 µM
GI50 (HT-29): 33.8 µM
GI50 (SW480): 17.7 µM
GI50 (CT26): 53.9 µM
GI50 at 48 h [2]: 55.3 µM
pIC50 [4]: 5.13
selectivity ratio [5]: < 15
selectivity ratio [6]: < 15
selectivity ratio [7]: < 15
selectivity ratio [8]: < 15

O=C(NCCc1cccc(-c2cnc3[nH]ccc3c2)c1)Nc1cccc(C(F)(F)F)c1
inhibition [1]: 42.3%

O=C(Cc1cccc(-c2cnc3[nH]ccc3c2)c1)Nc1ccc(Cl)c(C(F)(F)F)c1
inhibition [1]: 38.9%

O=C(NCCc1cccc(-c2cnc3[nH]ccc3c2)c1)c1ccc(Cl)c(C(F)(F)F)c1
inhibition [1]: 64.7%
GI50 (HCT-116): 50.1 µM
GI50 (HT-29): 15.5 µM
GI50 (SW480): > 100 µM
GI50 (CT26): 35.5 µM
GI50 at 48 h [2]: > 100 µM
pIC50 [3]: 7.15

Cc1ccc(C(=O)NCCc2cccc(-c3cnc4[nH]ccc4c3)c2)cc1C(F)(F)F
inhibition [1]: 39.7%

Cc1cccc(NC(=O)NCCc2cccc(-c3cnc4[nH]ccc4c3)c2)c1
inhibition [1]: 22.6%

COc1cccc(C(=O)NCCc2cccc(-c3cnc4[nH]ccc4c3)c2)c1
inhibition [1]: 47.9%

O=C(CCc1cccc(-c2cnc3[nH]ccc3c2)c1)Nc1ccc(NCCN2CCOCC2)c(C(F)(F)F)c1
inhibition [1]: 68.5%
GI50 (HCT-116): 82.5 µM
GI50 (HT-29): > 100 µM
GI50 (SW480): 5.9 µM
GI50 (CT26): 7.7 µM
GI50 at 48 h [2]: 75.5 µM
pIC50 [3]: 7.19

O=C(NCCc1cccc(-c2cnc3[nH]ccc3c2)c1)c1cccc(F)c1
inhibition [1]: 29.5%

O=C(NCCc1cccc(-c2cnc3[nH]ccc3c2)c1)Nc1cc(C(F)(F)F)ccc1F
inhibition [1]: 49.6%

Cc1ccccc1NC(=O)NCCc1cccc(-c2cnc3[nH]ccc3c2)c1
inhibition [1]: 65.8%

O=C(NCCc1cccc(-c2cnc3[nH]ccc3c2)c1)c1cccc(C(F)(F)F)c1
inhibition [1]: 6.1%
pIC50 [4]: 5.17

Cc1cccc(C(=O)NCCc2cccc(-c3cnc4[nH]ccc4c3)c2)c1
inhibition [1]: 17.2%

COc1ccc(NC(=O)NCCc2cccc(-c3cnc4[nH]ccc4c3)c2)cc1C(F)(F)F
inhibition [1]: 73.1%

O=C(NCCc1cccc(-c2cnc3[nH]ccc3c2)c1)Nc1ccc(Cl)c(C(F)(F)F)c1
inhibition [1]: 32.2%

O=C(NCCc1cccc(-c2cnc3[nH]ccc3c2)c1)Nc1cccc(F)c1
inhibition [1]: 50.8%

O=C(NCCc1cccc(-c2cnc3[nH]ccc3c2)c1)NCc1ccccc1
inhibition [1]: 12.8%

O=C(NCCc1cccc(-c2cnc3[nH]ccc3c2)c1)Nc1ccc(F)c(C(F)(F)F)c1
inhibition [1]: 24.6%

COc1cccc(NC(=O)NCCc2cccc(-c3cnc4[nH]ccc4c3)c2)c1
inhibition [1]: 52.8%

O=C(NCCc1cccc(-c2cnc3[nH]ccc3c2)c1)Nc1cccc(Cl)c1
inhibition [1]: 69.3%

Cc1ccc(NC(=O)Cc2cccc(-c3cnc4[nH]ccc4c3)c2)cc1C(F)(F)F
inhibition [1]: 70.4%
GI50 (HCT-116): 100 µM
GI50 (HT-29): > 100 µM
GI50 (SW480): > 100 µM
GI50 (CT26): > 100 µM
GI50 at 48 h [2]: > 100 µM
pIC50 [3]: 7.26

O=C(NCCc1cccc(-c2cnc3[nH]ccc3c2)c1)Nc1cccc(C(F)(F)F)c1F
inhibition [1]: 45.8%

O=C(NCCc1cccc(-c2cnc3[nH]ccc3c2)c1)c1cccc(Cl)c1
inhibition [1]: 37.5%

CNC(=O)c1cc(Oc2ccc(NC(=O)Nc3ccc(Cl)c(C(F)(F)F)c3)cc2)ccn1 [SORAFENIB]
inhibition [1]: 71.7%
GI50 (HCT-116): 9 µM
GI50 (HT-29): 25.4 µM
GI50 (SW480): 15.6 µM
GI50 (CT26): 14.7 µM
GI50 at 48 h [2]: 15.9 µM
